Patent publication US20230028880A1, “CD38-BINDING AGENTS AND USES THEREOF” (Biohaven Therapeutics Ltd., priority 2019, published 2023)
Several values for one entry are separate records, joined by “and”; a condition that tells them apart may be missing. Equal entries are not always repeated. Entries after “also recorded” stand apart in the source; their conditions may differ.

Assays:
Format in all cases: cell-based
[1] = system: Effector cells (ADCC reporter cells) with Daudi cells; assay: ADCC reporter assay: Daudi cells, IVIG and ADCC reporter effector cells (luciferase, RLU); settings: IVIG; for Luminescence, ADCC reporter assay: duplicate columns
Outline: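 Daudi targets (5,000/well) were combined with compound (8 concentrations, ½-log steps), human IVIG added at 40 ug/mL, and 37,500 ADCC reporter effector cells per well. After 18 h at 37° C and equilibration to 25° C, luciferase luminescence was read.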

[2] = system: NK cells (CIML and non-CIML); assay: CIML NK cell fratricide assay
Protocol: PBMC isolation: Leukopheresis product from a donor with body mass index (BMI) between 19-25, under 50 years old, not on immuno-suppressive drugs for at least 2 weeks with an estimated PBMC cell count of >10^10 was obtained from Key Biologics (subject ID 20982200) and transported at ambient temperature. Leukopheresis bag was wiped down with 70% EtOH, a small slit was made and contents were pipetted off into tubes. Leukopak contents were diluted 1:1 with PBS without Ca++/Mg++ and 20 ml of this mixture was layered on top of 25 mL of Ficoll. Tubes were then centrifuged at 400 g for 30 minutes without brakes. PBMCs were harvested from the interface into separate tubes, and tubes were filled to 50 mL with PBS. Cells were centrifuged for 10 min at 120 g to get rid of platelets. Supernatant was poured off and cells were re-suspended in RPMI 10% FBS at a concentration of 7-10×10^6 cells/ml. Cells were cultured overnight at 37 C in a 5% CO2 atmosphere until NK cell isolation.
NK cell isolation: PBMC were centrifuged at 400 g for 10 min and re-suspended in EasySep buffer. NK cells were isolated using NK cell isolation kits from […] Technologies according to kit's manufacturers' instructions. NK cell purity and phenotype was assessed by trypan Blue and flow cytometry using the following antibody cocktail: anti-CD56PE, CD3 APC, and viability was determined using staining with Trypan Blue exclusion dye, and by flow cytometry using Near Infra-Red Fixable viability dye (Thermo Fisher).
CIML NK cell generation: Isolated NK cells were re-suspended at 2×10^6 cells/ml in XVIVO 10% Human Serum and the following concentrations IL-15 (50 ng/ml), IL-12 (10 ng/ml), IL-18 (50 ng/ml) for 12 to 18 hrs. Cells were harvested and tested for purity and viability by Trypan Blue staining and by Flow Cytometry using Near Infra-Red Fixable viability dye (Thermo Fisher), CD3 APC (Biolegend) and CD56 PE (Biolegend).
The stock was then serially diluted in 100% DMSO to achieve 1000× concentrations to be used in the experiment. The 100% DMSO compound stock was then added to a tube and media was added to a volume of 1000 ul per 1 ul of compound and vortexed for 1 minute to ensure a homogenous mixture.
Similarly, NK cell pellets were re-suspended in Daratumumab control antibody solutions (a range of 3 ug/ml to 0.01 ug/ml in PBS 5% HSA). Resulting NK cell suspensions were aliquoted at 55 ul/well of a 96 wellv-bottom plate and were incubated for 2 hrs at 37° C. in a 5% CO2 atmosphere.

[3] = system: Daudi cells; assay: KILR ADCC killing assay: KILR-transfected Daudi cells with purified NK cells (% dead cells); settings: for % dead cells, KILR ADCC killing assay: KILR Daudi cells with purified NK cells, duplicate columns
Outline: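 Daudi cells carrying a KILR ePL-tagged beta-gal reporter were co-cultured with purified NK cells; cell death releases the reporter into the medium. Complementing enzyme acceptor in the detection reagent gives chemiluminescence, read as % dead cells.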

CCCCC[C@@H]1NC(=O)[C@H](CCCNC(=N)N)NC(=O)[C@H](C)NC(=O)CSC[C@@H](C(=O)NCCOCCOCCOCCOCCOCCOCCn2nnc3c2CCC2C(CC3)C2COC(=O)N2CCC(C(=O)NCC(=O)N[C@H](CCC(=O)N[C@H](CCC(=O)N[C@H](CCC(=O)O)C(=O)N[C@H](CCC(=O)N[C@H](CCC(=O)NCC(=O)NCC(=O)N[C@@H](CC(=O)O)C(=O)N[C@H]3CSSC[C@@H](C(=O)N[C@H](C(=O)O)[C@@H](C)O)NC(=O)[C@H](Cc4c[nH]c5ccccc45)NC(=O)[C@H](C(C)C)NC(=O)[C@H](CC(C)C)NC(=O)[C@H](CCC(=O)O)NC(=O)CNC(=O)[C@H](CC(C)C)NC(=O)[C@H](Cc4c[nH]cn4)NC(=O)[C@H](Cc4c[nH]c5ccccc45)NC(=O)[C@H](C)NC3=O)C(=O)O)C(=O)O)C(=O)O)C(=O)O)CC2)NC(=O)[C@H](CC(=O)O)NC(=O)[C@H](CCCCC)NC(=O)[C@H](Cc2ccc(-c3ccccc3)cc2)NC(=O)[C@H](CC(C)C)NC(=O)[C@H](C(C)C)NC(=O)CNC(=O)[C@H](CC(=O)O)NC(=O)[C@H](Cc2c[nH]cn2)NC(=O)[C@H](Cc2ccc(O)cc2)NC1=O (stereo partly drawn) [I-17]
EC50 ([1]; ADCC reporter assay): 5.9 nM
EC70 ([1]; ADCC reporter cells, 18 h, one set of experiment (FIG. 2)): about 2.7 nM
Luminescence, ADCC reporter assay ([1]; compound 0.3 nM, 18 h): 26632 RLU and 25947 RLU
Luminescence, ADCC reporter assay ([1]; compound 1 nM, 18 h): 32303 RLU and 36226 RLU
Luminescence, ADCC reporter assay ([1]; compound 3 nM, 18 h): 50671 RLU and 54979 RLU
Luminescence, ADCC reporter assay ([1]; compound 10 nM, 18 h): 63014 RLU and 62702 RLU
Luminescence, ADCC reporter assay ([1]; compound 30 nM, 18 h): 69329 RLU and 70980 RLU
Luminescence, ADCC reporter assay ([1]; compound 100 nM, 18 h): 70908 RLU and 75233 RLU
Luminescence, ADCC reporter assay ([1]; compound 300 nM, 18 h): 69068 RLU and 69848 RLU
Luminescence, ADCC reporter assay ([1]; compound 1000 nM, 18 h): 60578 RLU and 59440 RLU
NK cell fratricide / toxicity ([2]; 2 hr incubation, up to the highest doses (FIG. 5)): no apparent NK cell fratricide was detected; also recorded: low toxicity
increase in the percentage of dead NK cells ([2]; CIML NK cells, 2 hours post-incubation, daratumumab 3 ug/ml or 20.1 nM, I-17 +/-IVIG): no increase
increase in dead NK cells (I-17 IvIG vs DMSO IVIG control) ([2]; non-CIML NK cells, 2 h, I-17 25 uM with IVIG 500 ug/ml): 0.93%
increase in dead NK cells over DMSO treated control ([2]; non-CIML NK cells, 2 h, I-17 at 25 uM vs DMSO control): 1.7%
EC50 ([3]; KILR Daudi cells, purified NK cells, one set of experiments (FIG. 3)): 5.9 nM
% dead cells, KILR ADCC killing assay ([3]; compound 0.3 nM): 5.8% and 5.1%
% dead cells, KILR ADCC killing assay ([3]; compound 1 nM): 5.6%
% dead cells, KILR ADCC killing assay ([3]; compound 3 nM): 6.4% and 7.1%
% dead cells, KILR ADCC killing assay ([3]; compound 10 nM): 7% and 7.7%
% dead cells, KILR ADCC killing assay ([3]; compound 100 nM): 8.9% and 10.1%
% dead cells, KILR ADCC killing assay ([3]; compound 300 nM): 8.5% and 9.6%
